Values quoted from earlier work in the CATMoS acute toxicity set (Mansouri et al. 2021).
Where “and” joins values, the source holds several entries; their conditions need not be identical. Equal values may be shown once.

assay: rat acute oral toxicity; conditions: in vivo

Row | SMILES | LD50
1 | O=C1CCCN1CCO | 14400 mg/kg
2 | CNC(=S)N(C)C | 316 mg/kg
3 | C[N+]1(C)CCCC1COC(=O)C(O)(c1ccccc1)C1CCCCC1 (centres undefined) | 780 mg/kg
4 | CCC(=O)O[C@H]1[C@H](O[C@@H]2[C@@H](C)[C@H](O[C@H]3C[C@@](C)(OC)[C@@H](O)[C@H](C)O3)[C@@H](C)C(=O)O[C@H](CC)[C@@](C)(O)[C@H](O)[C@@H](C)C(=O)[C@H](C)C[C@@]2(C)O)O[C@H](C)C[C@@H]1N(C)C | 1450 mg/kg
5 | CNC(=O)Oc1ccc2c(c1)[C@]1(C)CCN(C)[C@@H]1N2C | 4.5 mg/kg
6 | Cc1ncc([N+](=O)[O-])n1CC(O)CCl (centres undefined) | 1780 mg/kg
7 | COCCCO | 5710 mg/kg
8 | CCOC(CN1CCN(CC(C)C(=O)c2ccccc2)CC1)c1ccccc1 (centres undefined) | 763 mg/kg
9 | CCOC(=O)C1(c2ccccc2)CCCN(C)CC1 (centres undefined) | 580 mg/kg and 355 mg/kg
10 | CCCCOCCOCCOC(=O)CCCCC(=O)OCCOCCOCCCC | 6000 mg/kg
11 | CC[C@@H]1C(=O)OC[C@@H]1Cc1cncn1C | 911 mg/kg and 402 mg/kg
12 | CN1CCCC(CC2c3ccccc3Sc3ccccc32)C1 (centres undefined) | 1460 mg/kg
13 | CCCCN(CCCC)N=O | 1200 mg/kg
14 | NC[C@@H]1O[C@H](O[C@H]2[C@@H](O)[C@H](O[C@@H]3[C@@H](O)[C@H](N)C[C@H](N)[C@H]3O[C@H]3O[C@H](CO)[C@@H](O)[C@H](O)[C@H]3N)O[C@@H]2CO)[C@H](N)[C@@H](O)[C@@H]1O | 21600 mg/kg
15 | CON=CC1=CCCN(C)C1 | 300 mg/kg
16 | O=C1CCc2ccccc2O1 | 1460 mg/kg
17 | O=[N+]([O-])c1c(Cl)c([N+](=O)[O-])c2[nH]c(C(F)(F)F)nc2c1Cl | 117 mg/kg
18 | C1COCCO1 | 4200 mg/kg
19 | CO[C@]12C[C@@H](COC(=O)c3cncc(Br)c3)CN(C)[C@@H]1Cc1cn(C)c3cccc2c13 | 1190 mg/kg
20 | CCOC(=O)C1(c2ccccc2)CCN(C)CC1 | 170 mg/kg
21 | CCN(CC)CCC1(c2ccccc2)C(=O)Oc2ccccc21 (centres undefined) | 600 mg/kg
22 | COP(=S)(OC)Oc1cc(Cl)c([N+](=O)[O-])c(Cl)c1 | 750 mg/kg
23 | CNC(=O)Oc1ccccc1C1OCCCO1 | 142 mg/kg
24 | Cc1ccccc1N(CCO)CCO | 2200 mg/kg
25 | COc1ccc(Cc2nccc3cc(OC)c(OC)cc23)cc1OC | 68.8 mg/kg

Row | SMILES | LD50
26 | C=CCC1(C(C)CCC)C(=O)N=C(O)NC1=O (centres undefined) | 125 mg/kg
27 | Oc1ccccc1S | 178 mg/kg
28 | C1CC2OC2CC1C1CO1 (centres undefined) | 2830 mg/kg
29 | CCCCCCCCN1CCCC1=O | 2050 mg/kg
30 | CC(C)(Oc1ccc(C(=O)c2ccc(Cl)cc2)cc1)C(=O)O | 1240 mg/kg
31 | FC(F)(F)c1nc2c(Br)cccc2[nH]1 | 28 mg/kg
32 | CCCCCCc1ccccc1O | 1300 mg/kg
33 | CN1CCC(Oc2ccc(N)cc2)(c2ccccc2)CC1 | 410 mg/kg
34 | CC(N)CCN (centres undefined) | 1350 mg/kg
35 | CNC(=O)Oc1cc(C(C)C)ccc1Cl | 21 mg/kg
36 | NCCCCCCNCCCCCCN | 450 mg/kg
37 | O=C(O)C(c1ccccc1)c1ccccc1 | 5540 mg/kg
38 | COC(=O)C(Cl)Cc1ccc(Cl)cc1 (centres undefined) | 1070 mg/kg
39 | CC1(C)CCCO1 | 4000 mg/kg
40 | CCC(C)C(CN(C)C)c1ccc(OC)c(Cl)c1 (centres undefined) | 454 mg/kg
41 | c1ccc(-n2cnnc2)cc1 | 134 mg/kg
42 | CC(=O)CO | 2200 mg/kg
43 | CNC(N)=NC(=N)N | 1750 mg/kg
44 | CCCCCN(N=O)C(N)=O | 560 mg/kg
45 | CCOP(=S)(OCC)Oc1nc(Cl)n(C(C)C)n1 | 27 mg/kg
46 | CCC1COC(Cn2cncn2)(c2ccc(Cl)cc2Cl)O1 (centres undefined) | 1340 mg/kg
47 | COc1ccc2cc([C@H](C)C(=O)OCCN3CCN(Cc4ccccc4)CC3)ccc2c1 | 1100 mg/kg
48 | C[C@H](O)[C@H](O)[C@H]1CNc2[nH]c(N)nc(=O)c2N1 | 1000 mg/kg
49 | C#CC(O)C=CC (centres undefined) | 34 mg/kg
50 | NC(Cl)(Cl)c1nc(Cl)c(Cl)c(Cl)c1Cl | 1500 mg/kg

Row | SMILES | LD50
51 | CNC(=O)ON=C(C)C(C)SC (centres undefined) | 153 mg/kg
52 | Sc1c(Cl)c(Cl)c(Cl)c(Cl)c1Cl | 11900 mg/kg
53 | CC=CCO | 793 mg/kg
54 | CCOC(=S)C=Cc1ccc(OC)c(OC)c1 | 980 mg/kg
55 | CCCCC(CC)OCCO (centres undefined) | 2280 mg/kg
56 | CCN(CCNC(=O)SCC(C)C)C(=O)SCC(C)C | 2710 mg/kg
57 | CCCCOC(=O)COC(=O)c1ccccc1C(=O)OCCCC | 7000 mg/kg
58 | O=C(O)COc1ccccc1 | 1500 mg/kg
59 | Cn1nc(-c2ccccc2)c2conc2c1=O | 1000 mg/kg
60 | O=C(COc1ccc(Cl)cc1)N1CCN(Cc2ccc3c(c2)OCO3)CC1 | 4480 mg/kg
61 | C/C(=N/Nc1nc(C)cc(C)n1)c1ccccc1C | 525 mg/kg
62 | ClCC1OC1CCl (centres undefined) | 710 mg/kg
63 | OCC(Cl)C(Cl)CO (centres undefined) | 2830 mg/kg
64 | CCOc1ccc(N(N=O)C(C)=O)cc1 | 21 mg/kg
65 | CC(C)(C)NC[C@H](O)COc1nsnc1N1CCOCC1 | 1030 mg/kg
66 | Cn1c(CCCC(=O)O)nc2cc(N(CCCl)CCCl)ccc21 | 200 mg/kg
67 | Nc1ccc(OP(=O)(Oc2ccc(N)cc2)Oc2ccc(N)cc2)cc1 | 138 mg/kg
68 | C[Si](Cn1cncn1)(c1ccc(F)cc1)c1ccc(F)cc1 | 674 mg/kg
69 | CC[N+]1(C)CCCC(OC(=O)C(O)(c2ccccc2)c2ccccc2)C1 (centres undefined) | 916 mg/kg and 850 mg/kg
70 | CCN(CC)CCNC(=O)c1ccc(NS(C)(=O)=O)cc1 | 3200 mg/kg
71 | CNC(=O)Oc1ccccc1Cl | 648 mg/kg
72 | N#Cc1cc([N+](=O)[O-])ccc1N | 3880 mg/kg
73 | Cc1ccc(S(=O)(=O)NCl)cc1 | 935 mg/kg
74 | CCCCCCOC(=O)Oc1ccccc1C(=O)O | 3450 mg/kg
